System: MV-4-11 cells
Experiment: Gene expression microarray analysis (Affymetrix PrimeView) and GSEA
Type: cell-based, human
Parameters: RFU PODN (11730768_x_at) / Fold change /veh PODN (11730768_x_at) / RFU LINC00158 (11744669_a_at) / Fold change /veh LINC00158 (11744669_a_at) / RFU DUSP10 (11751237_a_at) / Fold change /veh DUSP10 (11751237_a_at) / RFU ID3 (11757404_x_at) / Fold change /veh ID3 (11757404_x_at) / RFU PLEKHG5 (11737974_s_at) / Fold change /veh PLEKHG5 (11737974_s_at) / RFU LRRC4B (11730491_at) / Fold change /veh LRRC4B (11730491_at) / RFU GIMAP4 (11747438_a_at) / Fold change /veh GIMAP4 (11747438_a_at) / RFU KRT8 (11758183_x_at) / Fold change /veh KRT8 (11758183_x_at) / RFU CNN1 (11734310_a_at) / Fold change /veh CNN1 (11734310_a_at) / RFU VPS37D (11726825_at) / Fold change /veh VPS37D (11726825_at) / RFU C10orf10 (11716522_x_at) / Fold change /veh C10orf10 (11716522_x_at) / RFU KIR2DL2 /// KIR2DL4 /// KIR2DL5A /// KIR2DL5B /// KIR2DS1 /// KIR2DS2 /// KIR2DS3 /// KIR2DS4 /// KIR3DL3 /// KIR3DL3 /// KIR3DS1 (11738374_at) / Fold change /veh KIR2DL2 /// KIR2DL4 /// KIR2DL5A /// KIR2DL5B /// KIR2DS1 /// KIR2DS2 /// KIR2DS3 /// KIR2DS4 /// KIR3DL3 /// KIR3DL3 /// KIR3DS1 (11738374_at) / RFU C1QL1 (11718748_at) / Fold change /veh C1QL1 (11718748_at) / RFU TMPRSS4 (11747572_a_at) / Fold change /veh TMPRSS4 (11747572_a_at) / RFU HAMP (11756126_x_at) / Fold change /veh HAMP (11756126_x_at) / RFU RNFT2 (11725882_a_at) / Fold change /veh RNFT2 (11725882_a_at) / RFU NR4A2 (11747474_a_at) / Fold change /veh NR4A2 (11747474_a_at) / RFU ABCC12 (11746883_a_at) / Fold change /veh ABCC12 (11746883_a_at) / RFU TMEM136 (11760407_x_at) / Fold change /veh TMEM136 (11760407_x_at) / RFU CLDN22 /// WWC2 (11732394_at) / Fold change /veh CLDN22 /// WWC2 (11732394_at) / RFU HLA-DPB1 (11760878_x_at) / Fold change /veh HLA-DPB1 (11760878_x_at) / RFU SPINT1 (11716480_a_at) / Fold change /veh SPINT1 (11716480_a_at) / RFU GAP43 (11754022_s_at) / Fold change /veh GAP43 (11754022_s_at) / RFU A4GNT (11735810_at) / Fold change /veh A4GNT (11735810_at) / RFU PRB3 (11715151_x_at) / Fold change /veh PRB3 (11715151_x_at) / RFU TUBB4B (11761932_at) / Fold change /veh TUBB4B (11761932_at) / RFU CAPN14 (11732068_a_at) / Fold change /veh CAPN14 (11732068_a_at) / RFU TMCC2 (11721928_a_at) / Fold change /veh TMCC2 (11721928_a_at) / RFU IRGQ (11745062_a_at) / Fold change /veh IRGQ (11745062_a_at) / RFU FAM174B (11720279_a_at) / Fold change /veh FAM174B (11720279_a_at) / RFU TMPRSS4 (11748680_a_at) / Fold change /veh TMPRSS4 (11748680_a_at) / RFU FAM212B (11763350_a_at) / Fold change /veh FAM212B (11763350_a_at) / RFU PLEKHG5 (11743358_a_at) / Fold change /veh PLEKHG5 (11743358_a_at) / RFU ZSCAN30 (11745921_a_at) / Fold change /veh ZSCAN30 (11745921_a_at) / RFU CMKLR1 (11741424_a_at) / Fold change /veh CMKLR1 (11741424_a_at) / RFU LOC101060620 /// MAPK8IP1 (11723275_at) / Fold change /veh LOC101060620 /// MAPK8IP1 (11723275_at) / RFU SPTSSB (11747773_x_at) / Fold change /veh SPTSSB (11747773_x_at) / RFU PRSS12 (11739890_at) / Fold change /veh PRSS12 (11739890_at) / RFU BIN1 (11741810_x_at) / Fold change /veh BIN1 (11741810_x_at) / RFU WNT11 (11732464_a_at) / Fold change /veh WNT11 (11732464_a_at) / RFU C10orf10 (11716521_a_at) / Fold change /veh C10orf10 (11716521_a_at) / RFU C5orf56 (11738089_at) / Fold change /veh C5orf56 (11738089_at) / RFU CYB561 (11721691_x_at) / Fold change /veh CYB561 (11721691_x_at) / RFU ANKRD19P (11752326_a_at) / Fold change /veh ANKRD19P (11752326_a_at) / RFU OR2T12 /// OR2T33 /// OR2T8 (11738714_s_at) / Fold change /veh OR2T12 /// OR2T33 /// OR2T8 (11738714_s_at) / RFU VCAN (11748164_a_at) / Fold change /veh VCAN (11748164_a_at) / RFU JSRP1 (11732532_at) / Fold change /veh JSRP1 (11732532_at) / RFU KRTAP10-11 (11738290_x_at) / Fold change /veh KRTAP10-11 (11738290_x_at) / RFU MYO3A (11730013_a_at) / Fold change /veh MYO3A (11730013_a_at) / RFU EBF3 (11725865_a_at) / Fold change /veh EBF3 (11725865_a_at) / RFU CAMK2N1 (11719241_x_at) / Fold change /veh CAMK2N1 (11719241_x_at) / RFU C5orf56 (11738088_a_at) / Fold change /veh C5orf56 (11738088_a_at) / RFU OLFML3 (11715873_a_at) / Fold change /veh OLFML3 (11715873_a_at) / RFU LOC100653217 /// NTM (11731650_a_at) / Fold change /veh LOC100653217 /// NTM (11731650_a_at) / RFU MAPK11 (11762145_a_at) / Fold change /veh MAPK11 (11762145_a_at) / RFU FIZ1 (11724087_x_at) / Fold change /veh FIZ1 (11724087_x_at) / RFU OASL (11726364_x_at) / Fold change /veh OASL (11726364_x_at) / RFU SOX15 (11748057_x_at) / Fold change /veh SOX15 (11748057_x_at) / RFU CD79A (11719716_a_at) / Fold change /veh CD79A (11719716_a_at) / RFU HIST1H1D (11736915_at) / Fold change /veh HIST1H1D (11736915_at) / RFU CASKIN2 (11723855_a_at) / Fold change /veh CASKIN2 (11723855_a_at) / RFU LOC730098 (11760151_x_at) / Fold change /veh LOC730098 (11760151_x_at) / RFU OR4N2 (11742367_at) / Fold change /veh OR4N2 (11742367_at) / RFU PRRT2 (11749266_a_at) / Fold change /veh PRRT2 (11749266_a_at) / RFU SNX32 (11753110_a_at) / Fold change /veh SNX32 (11753110_a_at) / RFU CDHR5 (11726645_a_at) / Fold change /veh CDHR5 (11726645_a_at) / RFU RCAN1 (11760418_a_at) / Fold change /veh RCAN1 (11760418_a_at) / RFU FAM167A (11723789_a_at) / Fold change /veh FAM167A (11723789_a_at) / RFU FAM26E (11764081_at) / Fold change /veh FAM26E (11764081_at) / RFU ISYNA1 (11749810_s_at) / Fold change /veh ISYNA1 (11749810_s_at) / RFU ACY1 (11761880_at) / Fold change /veh ACY1 (11761880_at) / RFU 11764098_at / Fold change /veh 11764098_at / RFU SAMD14 (11745864_x_at) / Fold change /veh SAMD14 (11745864_x_at) / RFU NPB (11741838_a_at) / Fold change /veh NPB (11741838_a_at) / RFU TMPRSS6 (11731388_a_at) / Fold change /veh TMPRSS6 (11731388_a_at) / RFU KRTAP10-2 (11738614_at) / Fold change /veh KRTAP10-2 (11738614_at) / RFU ARHGAP8 /// PRR5-ARHGAP8 (11727945_x_at) / Fold change /veh ARHGAP8 /// PRR5-ARHGAP8 (11727945_x_at) / RFU KRTAP5-7 /// NADSYN1 (11734609_at) / Fold change /veh KRTAP5-7 /// NADSYN1 (11734609_at) / RFU RASL12 (11751679_a_at) / Fold change /veh RASL12 (11751679_a_at) / RFU CDKN2B (11736163_a_at) / Fold change /veh CDKN2B (11736163_a_at) / RFU PRF1 (11729649_at) / Fold change /veh PRF1 (11729649_at) / RFU, ZNF638 /// ZNF638-IT1 / Fold change vs veh, ZNF638 /// ZNF638-IT1 / RFU, PANK3 / Fold change vs veh, PANK3 / RFU, SH3YL1 / Fold change vs veh, SH3YL1 / RFU, ZEB2 / Fold change vs veh, ZEB2 / RFU, NRIP1 / Fold change vs veh, NRIP1 / RFU, PTTG1IP / Fold change vs veh, PTTG1IP / RFU, CAPN2 / Fold change vs veh, CAPN2 / RFU, MED14 / Fold change vs veh, MED14 / RFU, SNORA58 / Fold change vs veh, SNORA58 / RFU, C1orf63 / Fold change vs veh, C1orf63 / RFU, LRRFIP1 / Fold change vs veh, LRRFIP1 / RFU, NDUFAF7 / Fold change vs veh, NDUFAF7 / RFU, SLC12A2 / Fold change vs veh, SLC12A2 / RFU, IBTK / Fold change vs veh, IBTK / RFU, ESF1 / Fold change vs veh, ESF1 / Fold change vs veh, TMEM50B / RFU, TAOK1 / Fold change vs veh, TAOK1 / RFU, ACBD3 / Fold change vs veh, ACBD3 / RFU, TMA16 / Fold change vs veh, TMA16 / RFU, RWDD3 / Fold change vs veh, RWDD3 / RFU, BCAT1 / Fold change vs veh, BCAT1 / RFU, EDEM3 / Fold change vs veh, EDEM3 / RFU, TMEM33 / Fold change vs veh, TMEM33 / RFU, WDR75 / Fold change vs veh, WDR75 / RFU, AHCTF1 / Fold change vs veh, AHCTF1 / RFU, TFRC / Fold change vs veh, TFRC / RFU, ZDHHC17 / Fold change vs veh, ZDHHC17 / RFU, NOM1 / Fold change vs veh, NOM1 / RFU, ARL8B / Fold change vs veh, ARL8B / RFU, ZBTB11 / Fold change vs veh, ZBTB11 / RFU, TAMM41 / Fold change vs veh, TAMM41 / RFU, KIAA1704 /// LOC100996395 / Fold change vs veh, KIAA1704 /// LOC100996395 / RFU, ING1 / Fold change vs veh, ING1 / RFU, TRMT61B / Fold change vs veh, TRMT61B / RFU, FUBP3 / Fold change vs veh, FUBP3 / RFU, TP53 / Fold change vs veh, TP53 / RFU, TNKS2 / Fold change vs veh, TNKS2 / RFU, ZFP14 / Fold change vs veh, ZFP14 / RFU, ACTR2 / Fold change vs veh, ACTR2 / RFU, PPP3R1 / Fold change vs veh, PPP3R1 / RFU, PIK3R1 / Fold change vs veh, PIK3R1 / RFU, HNRNPA1 / Fold change vs veh, HNRNPA1 / RFU, RNF170 / Fold change vs veh, RNF170 / RFU, ZNF28 / Fold change vs veh, ZNF28 / RFU, RNGTT / Fold change vs veh, RNGTT / RFU, OGT / Fold change vs veh, OGT / RFU, BRD1 / Fold change vs veh, BRD1 / RFU, MARS / Fold change vs veh, MARS / RFU, ZNF655 / Fold change vs veh, ZNF655 / RFU, FAHD1 / Fold change vs veh, FAHD1 / RFU, BDP1 / Fold change vs veh, BDP1 / RFU, LRRCC1 / Fold change vs veh, LRRCC1 / RFU, ARID1A / Fold change vs veh, ARID1A / RFU, ZNF146 / Fold change vs veh, ZNF146 / RFU, ZNF330 / Fold change vs veh, ZNF330 / RFU, GPN3 / Fold change vs veh, GPN3 / RFU, C9orf123 / Fold change vs veh, C9orf123 / RFU, N4BP2L2 / Fold change vs veh, N4BP2L2 / RFU, ARFIP1 / Fold change vs veh, ARFIP1 / RFU, FAM179B / Fold change vs veh, FAM179B / RFU, BCL10 / Fold change vs veh, BCL10 / RFU, UHRF1BP1L / Fold change vs veh, UHRF1BP1L / RFU, BET1 / Fold change vs veh, BET1 / RFU, CNOT2 / Fold change vs veh, CNOT2 / RFU, ZNF268 / Fold change vs veh, ZNF268 / Fold change vs veh, ZNF507 / RFU, DGCR2 / Fold change vs veh, DGCR2 / RFU, WDSUB1 / Fold change vs veh, WDSUB1 / Fold change vs veh, HSP90B1 /// MIR3652 / RFU, ADSS / Fold change vs veh, ADSS / RFU, GK / Fold change vs veh, GK / RFU, ZNF148 / Fold change vs veh, ZNF148 / RFU, TAF9 / Fold change vs veh, TAF9 / RFU, SLC1A5 / Fold change vs veh, SLC1A5 / RFU, SLMO2 / Fold change vs veh, SLMO2 / RFU, ABCC4 / Fold change vs veh, ABCC4 / RFU, LOC101060439 /// RAP1B / Fold change vs veh, LOC101060439 /// RAP1B / RFU, RFX7 / Fold change vs veh, RFX7 / RFU, GTPBP10 / Fold change vs veh, GTPBP10 / RFU, CNEP1R1 / Fold change vs veh, CNEP1R1 / RFU, BIVM-ERCC5 /// ERCC5 / Fold change vs veh, BIVM-ERCC5 /// ERCC5 / RFU, ILF3 / Fold change vs veh, ILF3 / RFU 11762660_at / Fold change /veh 11762660_at / RFU VCAN (11757783_s_at) / Fold change /veh VCAN (11757783_s_at) / RFU DDX43 (11728927_at) / Fold change /veh DDX43 (11728927_at) / RFU KRT8 (11758188_x_at) / Fold change /veh KRT8 (11758188_x_at) / RFU NKD1 (11759106_at) / Fold change /veh NKD1 (11759106_at) / RFU SRD5A1 (11742802_a_at) / Fold change /veh SRD5A1 (11742802_a_at) / RFU TPSAB1 /// TPSB2 (11721975_s_at) / Fold change /veh TPSAB1 /// TPSB2 (11721975_s_at) / RFU GSTM3 (11746129_a_at) / Fold change /veh GSTM3 (11746129_a_at) / RFU IL23R (11737362_x_at) / Fold change /veh IL23R (11737362_x_at) / RFU TMEM51 (11727254_a_at) / Fold change /veh TMEM51 (11727254_a_at) / RFU PIWIL2 (11732686_x_at) / Fold change /veh PIWIL2 (11732686_x_at) / RFU ORM1 (11744905_x_at) / Fold change /veh ORM1 (11744905_x_at) / RFU CCDC152 (11743942_at) / Fold change /veh CCDC152 (11743942_at) / RFU ECM1 (11717891_a_at) / Fold change /veh ECM1 (11717891_a_at) / RFU IL23R (11748794_a_at) / Fold change /veh IL23R (11748794_a_at) / RFU TNFAIP8L3 (11732012_x_at) / Fold change /veh TNFAIP8L3 (11732012_x_at) / RFU MBOAT4 (11741988_at) / Fold change /veh MBOAT4 (11741988_at) / RFU 11764193_at / Fold change /veh 11764193_at / RFU TMEM53 (11763286_at) / Fold change /veh TMEM53 (11763286_at) / RFU MAGEB2 (11727129_at) / Fold change /veh MAGEB2 (11727129_at) / RFU TMEM200A (11744735_a_at) / Fold change /veh TMEM200A (11744735_a_at) / RFU CCDC152 (11751479_a_at) / Fold change /veh CCDC152 (11751479_a_at) / RFU FAM211A (11726209_a_at) / Fold change /veh FAM211A (11726209_a_at) / RFU RGS16 (11746705_a_at) / Fold change /veh RGS16 (11746705_a_at) / RFU VCAN (11755009_s_at) / Fold change /veh VCAN (11755009_s_at) / RFU RHOB (11743442_s_at) / Fold change /veh RHOB (11743442_s_at) / RFU RGS16 (11720943_a_at) / Fold change /veh RGS16 (11720943_a_at) / RFU RGS16 (11720944_at) / Fold change /veh RGS16 (11720944_at) / RFU, VPS4B / Fold change vs veh, VPS4B / RFU, CREB1 / Fold change vs veh, CREB1 / RFU, DNAJC13 / Fold change vs veh, DNAJC13 / RFU, GNAQ / Fold change vs veh, GNAQ / RFU, CDK5R1 / Fold change vs veh, CDK5R1 / RFU, ZRANB3 / Fold change vs veh, ZRANB3 / RFU, CUL4A / Fold change vs veh, CUL4A / RFU, CCNY / Fold change vs veh, CCNY / RFU, UFL1 / Fold change vs veh, UFL1 / RFU, COG3 / Fold change vs veh, COG3 / RFU, DIAPH2 / Fold change vs veh, DIAPH2 / RFU, SKA2 / Fold change vs veh, SKA2 / RFU, AFF3 / Fold change vs veh, AFF3 / RFU, LMF1 / Fold change vs veh, LMF1 / RFU, IPO11 / Fold change vs veh, IPO11 / RFU, DFFB / Fold change vs veh, DFFB / RFU, FOXP1 / Fold change vs veh, FOXP1 / RFU, CARD8 / Fold change vs veh, CARD8 / RFU, STRN3 / Fold change vs veh, STRN3 / RFU, ADK / Fold change vs veh, ADK / RFU, RASSF2 / Fold change vs veh, RASSF2 / RFU, WIPF1 / Fold change vs veh, WIPF1 / RFU, LARP1B / Fold change vs veh, LARP1B / RFU, RASA1 / Fold change vs veh, RASA1 / RFU, RB1 / Fold change vs veh, RB1 / RFU, PPFIA1 / Fold change vs veh, PPFIA1 / RFU, MAT2A / Fold change vs veh, MAT2A / RFU, CCT5 / Fold change vs veh, CCT5 / RFU, WDR92 / Fold change vs veh, WDR92 / RFU, CUX1 / Fold change vs veh, CUX1 / RFU, TTC7A / Fold change vs veh, TTC7A / RFU, TMEM135 / Fold change vs veh, TMEM135 / RFU, DEPTOR / Fold change vs veh, DEPTOR / RFU, CPM / Fold change vs veh, CPM / RFU, DNAJB6 / Fold change vs veh, DNAJB6 / RFU, CACNA2D3 / Fold change vs veh, CACNA2D3 / RFU, DTX4 / Fold change vs veh, DTX4 / RFU, TFCP2 / Fold change vs veh, TFCP2 / RFU, GMCL1 /// GMCL1P1 / Fold change vs veh, GMCL1 /// GMCL1P1 / RFU, AEBP2 / Fold change vs veh, AEBP2 / RFU, SNHG1 /// SNORD22 /// SNORD25 /// SNORD26 /// SNORD27 /// SNORD28 /// SNORD29 /// SNORD31 / Fold change vs veh, SNHG1 /// SNORD22 /// SNORD25 /// SNORD26 /// SNORD27 /// SNORD28 /// SNORD29 /// SNORD31 / Fold change (Aza/veh), C12orf56 (ProbeSet 11735607_a_at) / Fold change (ACY-1035/veh), C12orf56 (ProbeSet 11735607_a_at) / Fold change (Aza/veh), FGFR1OP (ProbeSet 11751329_s_at) / Fold change (ACY-1035/veh), FGFR1OP (ProbeSet 11751329_s_at) / Fold change (Aza/veh), VPS36 (ProbeSet 11739960_a_at) / Fold change (ACY-1035/veh), VPS36 (ProbeSet 11739960_a_at) / RFU SYPL1 (11715823_x_at) / Fold change /veh SYPL1 (11715823_x_at) / RFU IGFBP7 (11715501_s_at) / Fold change /veh IGFBP7 (11715501_s_at) / RFU REEP3 (11722064_at) / Fold change /veh REEP3 (11722064_at) / RFU IGLL1 (11728026_x_at) / Fold change /veh IGLL1 (11728026_x_at): dose or concentration left out as unconfirmed
Conditions: ProbeSet 11759094_a_at; LIST D

Nc1ncn([C@@H]2O[C@H](CO)[C@@H](O)[C@H]2O)c(=O)n1 [azacitidine]
Fold change vs veh, GNAQ: 0.76

Reference: article PMC5218480 (PLoS ONE, 2017)
